{"source": "patent US10376520B2", "about": "“Methods for the treatment of cardiovascular disorders” (Galapagos NV, priority 2015, dated 2019)", "system": "Subjects With Active Crohn's Disease", "assay": "[HDL] determination, Study 5 (Crohn's disease)", "format": "in vivo, human", "source_text": "Double-Blind, Randomized, Placebo-Controlled, Multi-Centre Study to Investigate the Efficacy and Safety of Compound 1 in Subjects With Active Crohn's Disease With Evidence of Mucosal Ulceration.\nThis is a double-blind, randomized, placebo-controlled, multi-centre Phase 2 study to investigate the efficacy and safety of Compound 1 administered once daily for the treatment of active CD with evidence of mucosal ulceration. The pharmacokinetics (including a PK substudy) and pharmacodynamics of Compound 1 and metabolite in CD will also be characterised.\nA total of 180 eligible subjects will be randomized to receive Compound 1 or placebo in addition to their stable background treatment (eg, corticosteroids, aminosalicylates, or CD-related antibiotics). The study will consist of 2 parts, with total treatment duration of 20 weeks. Randomization in Part 1 will be stratified according the subject's previous anti-TNF exposure/response, CRP level at Screening, and oral corticosteroid use at visit Day −1.\nAfter the first 10 weeks of treatment in Part 1, patients will be re-randomized for Part 2 as shown in the diagram below and will be stratified according to the subject's clinical response, previous anti-TNF exposure/response, and oral corticosteroid use at visit Day −1.\nThe following assays were conducted at Eurofins Global Central Laboratory, Bergschot 71, 4817 PA Breda, The Netherlands, and at Quest Diagnostics, Clinical Trials, Quest House, 125-135 Staines Road, Hounslow, Middlesex, TW3 3JB, United Kingdom. The assays for Study 5 were performed at BARC Europe, 3B, Industrie Park, Zwijnaarde, B-9052 Ghent, Belgium.\nThis assay relies on a homogeneous enzymatic colorimetric test. In the presence of magnesium ions, dextran sulfate selectively forms water-soluble complexes with LDL, VLDL and chylomicrons which are resistant to PEG-modified enzymes.\nThe cholesterol concentration of [HDL]-cholesterol is determined enzymatically by cholesterol esterase and cholesterol oxidase coupled with PEG to the amino groups (approx. 40%).\nIn the presence of peroxidase, the hydrogen peroxide generated reacts with 4-amino-antipyrine and Sodium N-(2-hydroxy-3-sulfopropyl)-3,5-dimethoxyaniline (HSDA) to form a purple-blue dye. The color intensity of this dye is directly proportional to the cholesterol concentration and is measured photometrically.\nHuman serum and plasma samples [HDL] determination was done on a Roche/Hitachi Cobas c 701/702 system which automatically calculate the analyte concentration of each sample. Samples containing precipitates are centrifuged before performing the assay.", "key": {"[1]": {"conditions": "200 mg q.d. continued to week 20; week 2"}, "[2]": {"conditions": "200 mg q.d. continued to week 20; week 4"}, "[3]": {"conditions": "200 mg q.d. continued to week 20; week 6"}, "[4]": {"conditions": "200 mg q.d. continued to week 20; week 10"}, "[5]": {"conditions": "200 mg q.d. continued to week 20; week 12"}, "[6]": {"conditions": "200 mg q.d. continued to week 20; week 16"}, "[7]": {"conditions": "200 mg q.d. continued to week 20; week 20"}, "[8]": {"conditions": "200 mg q.d. week 0 to 10, then 100 mg q.d. (N = 30), week 2"}, "[9]": {"conditions": "200 mg q.d. week 0 to 10, then 100 mg q.d. (N = 30), week 4"}, "[10]": {"conditions": "200 mg q.d. week 0 to 10, then 100 mg q.d. (N = 30), week 6"}, "[11]": {"conditions": "200 mg q.d. week 0 to 10, then 100 mg q.d. (N = 30), week 10"}, "[12]": {"conditions": "200 mg q.d. week 0 to 10, then 100 mg q.d. (N = 30), week 12"}, "[13]": {"conditions": "200 mg q.d. week 0 to 10, then 100 mg q.d. (N = 30), week 16"}, "[14]": {"conditions": "200 mg q.d. week 0 to 10, then 100 mg q.d. (N = 30), week 20"}, "[15]": {"conditions": "200 mg q.d. week 0 to 10, then placebo (N = 23), week 2"}, "[16]": {"conditions": "200 mg q.d. week 0 to 10, then placebo (N = 23), week 4"}, "[17]": {"conditions": "200 mg q.d. week 0 to 10, then placebo (N = 23), week 6"}, "[18]": {"conditions": "200 mg q.d. week 0 to 10, then placebo (N = 23), week 10"}, "[19]": {"conditions": "200 mg q.d. week 0 to 10, then placebo (N = 23), week 12"}, "[20]": {"conditions": "200 mg q.d. week 0 to 10, then placebo (N = 23), week 16"}, "[21]": {"conditions": "200 mg q.d. week 0 to 10, then placebo (N = 23), week 20"}, "[22]": {"conditions": "200 mg q.d. week 0 to 10, to 100 mg q.d. week 10 to 20; week 2"}}}
{"smiles": "O=C(Nc1nc2cccc(-c3ccc(CN4CCS(=O)(=O)CC4)cc3)n2n1)C1CC1", "note": "[Compound 1, cyclopropanecarboxylic acid {5-[4-(1,1-dioxo-thiomorpholin-4-ylmethyl)-phenyl]-[1,2,4]triazolo[1,5-a]pyridin-2yl}-amide]", "values": [{"measurement": "[HDL] Mean CFB - 10 weeks results", "setting": "200 mg q.d. (N = 130), week 2", "value": 0.222, "unit": "mmol/L"}, {"measurement": "[HDL] Median CFB - 10 weeks results", "setting": "200 mg q.d. (N = 130), week 2", "value": 0.210, "unit": "mmol/L"}, {"measurement": "[HDL] Mean CFB - 10 weeks results", "setting": "200 mg q.d. (N = 130), week 4", "value": 0.237, "unit": "mmol/L"}, {"measurement": "[HDL] Median CFB - 10 weeks results", "setting": "200 mg q.d. (N = 130), week 4", "value": 0.210, "unit": "mmol/L"}, {"measurement": "[HDL] Mean CFB - 10 weeks results", "setting": "200 mg q.d. (N = 130), week 6", "value": 0.243, "unit": "mmol/L"}, {"measurement": "[HDL] Median CFB - 10 weeks results", "setting": "200 mg q.d. (N = 130), week 6", "value": 0.250, "unit": "mmol/L"}, {"measurement": "[HDL] Mean CFB - 10 weeks results", "setting": "200 mg q.d. (N = 130), week 10", "value": 0.239, "unit": "mmol/L"}, {"measurement": "[HDL] Median CFB - 10 weeks results", "setting": "200 mg q.d. (N = 130), week 10", "value": 0.260, "unit": "mmol/L"}, {"measurement": "[HDL] Median CFB - 10 weeks results", "setting": "200 mg q.d. (N = 130); week 2", "value": 16.867, "unit": "%"}, {"measurement": "[HDL] Median CFB - 10 weeks results", "setting": "200 mg q.d. (N = 130); week 4", "value": 15.333, "unit": "%"}, {"measurement": "[HDL] Median CFB - 10 weeks results", "setting": "200 mg q.d. (N = 130); week 6", "value": 16.867, "unit": "%"}, {"measurement": "[HDL] Median CFB - 10 weeks results", "setting": "200 mg q.d. (N = 130); week 10", "value": 15.789, "unit": "%"}, {"measurement": "[HDL] Mean CFB - 20 weeks results", "setting": "[1]", "value": 18.29, "unit": "%"}, {"measurement": "[HDL] Median CFB - 10 weeks results", "setting": "[1]", "value": 17.33, "unit": "%"}, {"measurement": "[HDL] Mean CFB - 20 weeks results", "setting": "[2]", "value": 15.66, "unit": "%"}, {"measurement": "[HDL] Median CFB - 10 weeks results", "setting": "[2]", "value": 9.91, "unit": "%"}, {"measurement": "[HDL] Mean CFB - 20 weeks results", "setting": "[3]", "value": 19.93, "unit": "%"}, {"measurement": "[HDL] Median CFB - 10 weeks results", "setting": "[3]", "value": 13.98, "unit": "%"}, {"measurement": "[HDL] Mean CFB - 20 weeks results", "setting": "[4]", "value": 17.97, "unit": "%"}, {"measurement": "[HDL] Median CFB - 10 weeks results", "setting": "[4]", "value": 12.50, "unit": "%"}, {"measurement": "[HDL] Mean CFB - 20 weeks results", "setting": "[5]", "value": 16.97, "unit": "%"}, {"measurement": "[HDL] Median CFB - 10 weeks results", "setting": "[5]", "value": 9.94, "unit": "%"}, {"measurement": "[HDL] Mean CFB - 20 weeks results", "setting": "[6]", "value": 13.90, "unit": "%"}, {"measurement": "[HDL] Median CFB - 10 weeks results", "setting": "[6]", "value": 12.22, "unit": "%"}, {"measurement": "[HDL] Mean CFB - 20 weeks results", "setting": "[7]", "value": 11.15, "unit": "%"}, {"measurement": "[HDL] Median CFB - 10 weeks results", "setting": "[7]", "value": 10.66, "unit": "%"}, {"measurement": "[HDL] Mean CFB - 20 weeks results", "setting": "[8]", "value": 0.24, "unit": "mmol/L"}, {"measurement": "[HDL] Median CFB - 20 weeks results", "setting": "[8]", "value": 0.22, "unit": "mmol/L"}, {"measurement": "[HDL] Mean CFB - 20 weeks results", "setting": "[9]", "value": 0.31, "unit": "mmol/L"}, {"measurement": "[HDL] Median CFB - 20 weeks results", "setting": "[9]", "value": 0.22, "unit": "mmol/L"}, {"measurement": "[HDL] Mean CFB - 20 weeks results", "setting": "[10]", "value": 0.33, "unit": "mmol/L"}, {"measurement": "[HDL] Median CFB - 20 weeks results", "setting": "[10]", "value": 0.31, "unit": "mmol/L"}, {"measurement": "[HDL] Mean CFB - 20 weeks results", "setting": "[11]", "value": 0.33, "unit": "mmol/L"}, {"measurement": "[HDL] Median CFB - 20 weeks results", "setting": "[11]", "value": 0.26, "unit": "mmol/L"}, {"measurement": "[HDL] Mean CFB - 20 weeks results", "setting": "[12]", "value": 0.17, "unit": "mmol/L"}, {"measurement": "[HDL] Median CFB - 20 weeks results", "setting": "[12]", "value": 0.15, "unit": "mmol/L"}, {"measurement": "[HDL] Mean CFB - 20 weeks results", "setting": "[13]", "value": 0.11, "unit": "mmol/L"}, {"measurement": "[HDL] Median CFB - 20 weeks results", "setting": "[13]", "value": 0.03, "unit": "mmol/L"}, {"measurement": "[HDL] Mean CFB - 20 weeks results", "setting": "[14]", "value": 0.18, "unit": "mmol/L"}, {"measurement": "[HDL] Median CFB - 20 weeks results", "setting": "[14]", "value": 0.16, "unit": "mmol/L"}, {"measurement": "[HDL] Mean CFB - 20 weeks results", "setting": "[15]", "value": 0.18, "unit": "mmol/L"}, {"measurement": "[HDL] Median CFB - 20 weeks results", "setting": "[15]", "value": 0.18, "unit": "mmol/L"}, {"measurement": "[HDL] Mean CFB - 20 weeks results", "setting": "[16]", "value": 0.30, "unit": "mmol/L"}, {"measurement": "[HDL] Median CFB - 20 weeks results", "setting": "[16]", "value": 0.39, "unit": "mmol/L"}, {"measurement": "[HDL] Mean CFB - 20 weeks results", "setting": "[17]", "value": 0.15, "unit": "mmol/L"}, {"measurement": "[HDL] Median CFB - 20 weeks results", "setting": "[17]", "value": 0.16, "unit": "mmol/L"}, {"measurement": "[HDL] Mean CFB - 20 weeks results", "setting": "[18]", "value": 0.16, "unit": "mmol/L"}, {"measurement": "[HDL] Median CFB - 20 weeks results", "setting": "[18]", "value": 0.24, "unit": "mmol/L"}, {"measurement": "[HDL] Mean CFB - 20 weeks results", "setting": "[19]", "value": -0.12, "unit": "mmol/L"}, {"measurement": "[HDL] Median CFB - 20 weeks results", "setting": "[19]", "value": -0.03, "unit": "mmol/L"}, {"measurement": "[HDL] Mean CFB - 20 weeks results", "setting": "[20]", "value": -0.18, "unit": "mmol/L"}, {"measurement": "[HDL] Median CFB - 20 weeks results", "setting": "[20]", "value": -0.05, "unit": "mmol/L"}, {"measurement": "[HDL] Mean CFB - 20 weeks results", "setting": "[21]", "value": -0.21, "unit": "mmol/L"}, {"measurement": "[HDL] Median CFB - 20 weeks results", "setting": "[21]", "value": -0.08, "unit": "mmol/L"}, {"measurement": "[HDL] Mean CFB - 20 weeks results", "setting": "[22]", "value": 20.28, "unit": "%"}, {"measurement": "[HDL] Median CFB - 10 weeks results", "setting": "[22]", "value": 17.11, "unit": "%"}]}
